Assay results taken from patent publication US20100087406A1, “INDUCTION OF INNATE IMMUNITY BY VITAMIN D3 AND ITS ANALOGS” (CEDARS-SINAI MEDICAL CENTER, priority 2004, published 2010).
“Also recorded” adds a separate entry of the source. Where two headings read alike, the source gives them in different places.

Experiments:
CAMP [1] = experiment: Induction of CAMP mRNA expression in U937 cells (QRT-PCR, RT-PCR, Northern blot); type: cell-based, human; settings: for induction of CAMP (hCAP18) mRNA expression by Vitamin D3 analogs: U937, 1×10^−7 M, 12 and 24 hours
CAMP [2] = experiment: Induction of CAMP mRNA expression in NB4 cells (Northern blot)
CAMP [3] = experiment: Induction of CAMP mRNA expression in HL60 cells (Northern blot)
CAMP [4] = settings: cultured keratinocytes or composite keratinocyte grafts; cited from earlier work
CRAMP [5] = experiment: CRAMP expression in bone marrow of treated BNX mice (Northern blot); settings: intraperitoneal, 0.05 μg/mouse every two days for 6 weeks
hCAP18 = settings: colon epithelial cell lines; cited from earlier work
CAMP [6] = experiment: Induction of CAMP mRNA in keratinocyte cell line HaCat (QRT-PCR); type: cell-based, human
From the text: The X-axis represents (CAMP(ng)/18S(ng)), +/−SD.

CRAMP [7] = experiment: CRAMP in cultured bone marrow cells of C/EBPε-deficient or wild type mice (QRT-PCR); type: cell-based
Procedure: Primers against murine CAMP/CRAMP (forward, SEQ ID NO.: 7 and reverse, SEQ ID NO.: 8) (Table 3) were used at 200 nM per reaction.
The relative fold change between samples was determined using data normalized for 18S expression. Samples were analyzed in triplicate.

HNP3 (α-defensin) = experiment: Induction of primary granule gene HNP3 in U937 cells (RT-PCR); settings: U937, 1×10^−7 M, 24 h
LTF (lactoferrin) = experiment: Induction of secondary granule gene LTF in U937 cells (RT-PCR); settings: U937, 1×10^−7 M, 24 h
CD11b [8] = experiment: Differentiation marker CD11b mRNA in U937 cells (Northern blot); settings: for macrophage-like differentiation (induction of CD11b): U937, 1,25[OH]2D3 1×10^−7 M or TPA 5 ng/ml, 1, 3 or 5 days
From the text: Total RNA at each time point was isolated and electrophoresed, then transferred to a charged membrane for Northern analysis.
Total RNA was extracted and analyzed by Northern blot.

CD11b [9] = experiment: Differentiation marker CD11b mRNA in HL60 cells (Northern blot); type: cell-based, human; settings: HL-60; 1,25[OH]2D3 1×10^−7 M or TPA 5 ng/ml; 1, 3 or 5 days
CAMP [10] = settings: primary human keratinocytes; cited from earlier work
[11] = U937, initial screen, 24 h, QRT-PCR and Northern blot

Question: For `CC1=C(/C=C/C(C)=C/C=C/C(C)=C/C(=O)O)C(C)(C)CCC1` [ATRA, all trans retinoic acid], which “induction of CAMP expression” value (CAMP [1]; U937, 5×10^−7 M, 1-5 days) is on record?
Answer: The value was “No induction was observed”.

Question: What about the “induction of CAMP expression” value (CAMP [1]; [11]) of the same molecule?
Answer: The value was “only 1,25(OH)2D3 induced CAMP expression significantly”.

Question: What about the “induction of CAMP expression” value (CAMP [2]; NB4, 5×10^−7 M, 1-5 days) of the same molecule?
Answer: The value was “No induction was observed”.

Question: What about the “induction of CAMP expression” value (CAMP [3]; HL60, 5×10^−7 M, 1-5 days) of the same molecule?
Answer: Its value is “No induction was observed”.

Question: Which “induction of CAMP expression” value (CAMP [4]) does the source give for IL-8: cytokine here?
Answer: Its value is “did not”.

Question: What does the source list for `C=C1/C(=C\C=C2/CCC[C@]3(C)[C@@H]([C@H](C)/C=C/C[C@@](C)(O)CO)CC[C@@H]23)C[C@@H](O)C[C@@H]1O` [compound I, 1,25R,26-(OH)3-22-ene-D3]?
Answer: induction of CAMP (hCAP18) mRNA expression by Vitamin D3 analogs (CAMP [1]; Northern blot): strongly induced CAMP gene expression; also recorded: Induction of hCAP18 mRNA expression was observed; also recorded: Induction of CAMP mRNA expression was observed; CRAMP expression in bone marrow compared with a vehicle-treated mouse (CRAMP [5]): did not significantly alter CRAMP expression

Question: For GM-CSF: growth factor, which “induction of CAMP expression” value (CAMP [1]; [11]) is on record?
Answer: The value was “only 1,25(OH)2D3 induced CAMP expression significantly”.

Question: Which results are given for INFγ: inflammatory factor?
Answer: induction of CAMP expression (CAMP [1]; [11]): only 1,25(OH)2D3 induced CAMP expression significantly; induction of CAMP expression (CAMP [4]): did not; induction of hCAP18 expression (hCAP18): not by pro-inflammatory mediators

Question: For IL-6: cytokine, which “induction of CAMP expression” value (CAMP [1]; [11]) is on record?
Answer: The value was “only 1,25(OH)2D3 induced CAMP expression significantly”.

Question: What about the “induction of CAMP expression” value (CAMP [4]) of the same molecule?
Answer: Its value is “did not”.

Question: What about the “induction of hCAP18 expression” value (hCAP18) of the same molecule?
Answer: The value was “not by pro-inflammatory mediators”.

Question: For `C=C1/C(=C\C=C2/CCC[C@]3(C)[C@@H]([C@H](C)CCCC(C)(C)O)CC[C@@H]23)C[C@@H](O)C[C@@H]1O` [1,25(OH)2D3, 1,25-dihydroxyvitamin D3], which “induction of CAMP mRNA compared with myeloid cells” value (CAMP [6]) is on record?
Answer: Its value is “not as robust as that observed in the myeloid cells; also recorded: less striking”.

Question: And the “induction of CAMP mRNA” value (CAMP [6]; 1×10^−7 M, 24 hours, QRT-PCR)?
Answer: The value was “Induction of CAMP mRNA was observed”.

Question: What about the “induction of CRAMP” value (CRAMP [7]; C/EBPε-deficient or wild type bone marrow cells cultured in vitro, 24 h) of the same molecule?
Answer: Its value is “CRAMP induction was not observed”.

Question: What about the “decrease of CRAMP” value (CRAMP [7]; bone marrow cells, 24 h post-treatment (FIG. 14B)) of the same molecule?
Answer: Its value is “approximately 2 fold”.

Question: And the “induction of HNP3” value (HNP3 (α-defensin))?
Answer: The value was “No induction of these genes was observed”.

Question: And the “induction of CAMP expression” value (CAMP [2]; NB4, 1×10^−6 M to 1×10^−9 M, 24 h, Northern blot (FIG. 3))?
Answer: The value was “induction was observed; also recorded: induced expression of CAMP was observed”.

Question: What about the “induction of CAMP expression” value (CAMP [2]; NB4, 1×10^−6 M to 1×10^−9 M, 24 h, Northern blot (FIG. 3), listed as Vitamin D3) of the same molecule?
Answer: Its value is “Moderate induction”.

Question: And the “induction of LTF” value (LTF (lactoferrin))?
Answer: Its value is “No induction of these genes was observed”.

Question: And the “time of induction of the differentiation marker CD11b” value (CD11b [8]; U937, 1×10^−7 M, time course 1-24 hours)?
Answer: The value was 12 h.

Question: What about the “macrophage-like differentiation (induction of CD11b)” value (“macrophage-like differentiation” below) (CD11b [8]) of the same molecule?
Answer: Its value is “promoted macrophage-like differentiation”.

Question: For `C[C@@H]1C[C@@H]([C@H](O)CC2CC(=O)NC(=O)C2)C(=O)[C@@H](C)C1` [CHX, cyclohexamide], which “induction of CAMP gene expression by CHX alone” value (CAMP [1]; U937, data not shown) is on record?
Answer: Its value is “did not induce CAMP gene expression”.

Question: Which “induction of CAMP expression” value (CAMP [1]; [11]) does the source give for `CCCCCCCCCCCCCC(=O)O[C@@H]1[C@@H](C)[C@@]2(O)[C@@H](C=C(CO)C[C@]3(O)C(=O)C(C)=C[C@@H]23)[C@@H]2C(C)(C)[C@]12OC(C)=O` [TPA] here?
Answer: Its value is “only 1,25(OH)2D3 induced CAMP expression significantly”.

Question: What about the “induction of CAMP mRNA” value (CAMP [1]; U937, 1,25[OH]2D3 1×10^−7 M or TPA 5 ng/ml, 1, 3 or 5 days, Northern blot) of the same molecule?
Answer: Its value is “not TPA”.

Question: And the “macrophage-like differentiation” value (CD11b [9])?
Answer: Its value is “promoted macrophage-like differentiation”.

Question: What about the “induction of CAMP mRNA” value (CAMP [3]; HL-60, 1,25[OH]2D3 1×10^−7 M or TPA 5 ng/ml, 1, 3 or 5 days, Northern blot) of the same molecule?
Answer: Its value is “not TPA”.

Question: And the “macrophage-like differentiation” value (CD11b [8])?
Answer: Its value is “promoted macrophage-like differentiation”.

Question: Which “induction of CAMP expression” value (CAMP [1]; [11]) does the source give for TNFα here?
Answer: The value was “only 1,25(OH)2D3 induced CAMP expression significantly”.

Question: And the “induction of CAMP expression” value (CAMP [4])?
Answer: The value was “did not”.

Question: And the “induction of hCAP18 expression” value (hCAP18)?
Answer: Its value is “not by pro-inflammatory mediators”.

Question: For IL-1β: proinflammatory cytokine, which “induction of CAMP expression” value (CAMP [4]) is on record?
Answer: The value was “induced CAMP expression”.

Question: Which “induction of CAMP expression” value (CAMP [1]) does the source give for `C[C@]12CCC(=O)C[C@@H]1CC[C@@H]1[C@@H]2CC[C@]2(C)[C@@H](O)CC[C@@H]12` [DHT, dihydrotestosterone] here?
Answer: The value was “only 1,25(OH)2D3 induced CAMP expression significantly”.

Question: For `C=C1/C(=C\C=C2/CCC[C@]3(C)[C@@H]([C@@H](C)OCCCC(O)(CC)CC)CC[C@@H]23)C[C@@H](O)C[C@@H]1O` [KH1060, 20-epi-22oxa-24a,26a,27a-tri-homo-1,25(OH)2D3], which “induction of CAMP (hCAP18) mRNA expression by Vitamin D3 analogs” value (“induction of CAMP … by Vitamin D3 analogs” for short) (CAMP [1]; Northern blot) is on record?
Answer: The value was “strongly induced CAMP gene expression; also recorded: Induction of hCAP18 mRNA expression was observed; also recorded: Induction of CAMP mRNA expression was observed”.

Question: For “insulin-like growth factor (IGF)-1: growth factor that is important in wound healing”, which “induction of CAMP mRNA and protein” value (CAMP [10]) is on record?
Answer: Its value is “induce both the CAMP mRNA and protein”.

Question: With `C=C1/C(=C\C=C2/CCC[C@]3(C)[C@@H]([C@H](C)/C=C/C=C/C(O)(CC)CC)CC[C@@H]23)C[C@@H](O)C[C@@H]1O` [EB1089, 1,25-dihydroxy-22,24-diene, 24,26,27-trihomo] as the molecule, how does the “induction of CAMP … by Vitamin D3 analogs” value (CAMP [1]; Northern blot) read?
Answer: Its value is “strongly induced CAMP gene expression”.

Question: And the “induction of CAMP … by Vitamin D3 analogs” value (CAMP [1]; Northern blot, listed as EB 1089)?
Answer: Its value is “Induction of hCAP18 mRNA expression was observed; also recorded: Induction of CAMP mRNA expression was observed”.

Question: For `CCCCCCCCCCCCCC(=O)O[C@@H]1[C@@H](C)[C@@]2(O)[C@@H](C=C(CO)C[C@]3(O)C(=O)C(C)=C[C@@H]23)[C@@H]2C(C)(C)[C@]12OC(C)=O` [PMA], which “induction of hCAP18 expression” value (hCAP18) is on record?
Answer: The value was “not by pro-inflammatory mediators”.

B1: I1-4: cytokine, probably IL-4 (protein, UniProt P05112 25-153, looked up)
Interleukin-4: HKCDITLQEIIKTLNSLTEQKTLCTELTVTDIFAASKNTTEKETFCRAATVLRQFYSHHEKDTRCLGATAQQFHRHKQLIRFLKRLDRNLWGLAGLNSCPVKEANQSTLENFLERLKTIMREKYSKCSS
Question: For B1, which “induction of CAMP expression” value (CAMP [4]) is on record?
Answer: The value was “did not”.

B2: IL-1α: pro-inflammatory mediator (protein, UniProt P01583 113-271, looked up)
Interleukin-1 alpha: SAPFSFLSNVKYNFMRIIKYEFILNDALNQSIIRANDQYLTAAALHNLDEAVKFDMGAYKSSKDDAKITVILRISKTQLYVTAQDEDQPVLLKEMPEIPKTITGSETNLLFFWETHGTKNYFTSVAHPNLFIATKQDYWVCLAGGPPSITDFQILENQA
Question: For B2, which “induction of hCAP18 expression” value (hCAP18) is on record?
Answer: The value was “not by pro-inflammatory mediators”.

B3: G-CSF: growth factor (protein, UniProt P09919 31-207, looked up)
Granulocyte …: TPLGPASSLPQSFLLKCLEQVRKIQGDGAALQEKLVSECATYKLCHPEELVLLGHSLGIPWAPLSSCPSQALQLAGCLSQLHSGLFLYQGLLQALEGISPELGPTLDTLQLDVADFATTIWQQMEELGMAPALQPTQGAMPAFASAFQRRAGGVLVASHLQSFLEVSYRVLRHLAQP
Question: With B3 as the molecule, how does the “induction of CAMP expression” value (CAMP [1]; [11]) read?
Answer: Its value is “only 1,25(OH)2D3 induced CAMP expression significantly”.

B4: IL-10: cytokine (protein, UniProt P22301 19-178, looked up)
Interleukin-10: SPGQGTQSENSCTHFPGNLPNMLRDLRDAFSRVKTFFQMKDQLDNLLLKESLLEDFKGYLGCQALSEMIQFYLEEVMPQAENQDPDIKAHVNSLGENLKTLRLRLRRCHRFLPCENKSKAVEQVKNAFNKLQEKGIYKAMSEFDIFINYIEAYMTMKIRN
Question: With B4 as the molecule, how does the “induction of CAMP expression” value (CAMP [4]) read?
Answer: The value was “did not”.
